From US6365616B1, “Methimazole derivatives and tautomeric cyclic thiones to treat autoimmune diseases” (Sentron Medical, Inc., priority 1998, dated 2002)
Read-outs that look alike come from different tables or passages of the source.

How the values were obtained:
MHC class I RNA = test: Northern analysis of MHC class I RNA levels in FRTL-5 cells; format: cell-based, rat; settings: 40 hours; for inhibition at 100 µM / inhibition at 1000 µM / inhibition at 5000 µM: Rattus norvegicus, FRTL-5
[1] = tested on: Y box protein (TSEP-1) RNA; test: Northern analysis of Y box protein (TSEP-1) RNA levels in FRTL-5 cells; format: cell-based, rat; settings: 40 hours
Text: Whereas γ-IFN decreases Y box protein RNA levels in FRTL-5 cells, MMI can reverse this action (FIG. 16). […] The rat TSEP-1 probe was the clone 31 insert, residues 5 to 1395 of the rat TSEP-1 nucleotide sequence reported (Ohmori, M., et al., ibid (1996)); rat β-actin was kindly provided by Dr. B. Paterson (NCI, Bethesda, Md.). Radiolabeling of all probes, hybridization (0.5-1.0×10^6cpm/ml), and washing were as described (Isozaki, O., et al., ibid (1989); Saji, M., et al., ibid (1992); Ohmori, M., et al., ibid (1996)).
The ability of the compounds to reverse the γ-IFN-induced decrease in TSEP-1 RNA levels is once again 10>11>7 or 8>2>MMI>3. This mimics data in all other assays.

[2] = tested on: MHC class I antigen expression; test: Flow cytometry of IFN-increased class I antigen expression in FRTL-5 cells; format: cell-based, rat; settings: 100 U/ml γ-interferon, 6H medium (TSH), 40 hours
Procedure: In this experiment 10^6 cells were incubated with MHC class II or MHC class I-specific antibodies as described (Montani, V., et al., ibid (1998b); Saji, M., et al., ibid (1992a); Balducci-Silano, P. L., et al., Endocrinology 139:2309-2313 (1998)). After 30 min on ice, cells were washed with phosphate buffered saline at pH 7.4 and incubated for 30 min with fluorescein-isothiocyanate (FITC)-conjugated antibodies then analyzed by flow cytometry on a FACScan Cytometer using CellQuest software (Becton Dickinson).
The concentration needed to achieve suppression of the interferon induced class I or class II surface expression was determined by testing different concentrations of the compounds (Table 18). Like all other assays, the order of effectiveness was compound 10>11>7 or 8>2>MMI>3.

[3] = tested on: swine class I promoter (PD1); test: Luciferase assay, FRTL-5 cells stably transfected with class I promoter-luciferase chimeras; format: cell-based; settings: for % inhibition of IFN-increased p(−203)LUC class I promoter activity / % inhibition of basal p(−203)LUC class I promoter activity / inhibition at 10 µM / inhibition at 25 µM / inhibition at 100 µM / inhibition at 1000 µM: 6H medium; for % inhibition of IFN-increased p(−203)LUC class I promoter activity / % inhibition of basal p(−203)LUC class I promoter activity / inhibition at 10 µM / inhibition at 25 µM / inhibition at 100 µM / inhibition at 1000 µM / Luciferase activity + 5 mM MMI / Luciferase activity +γ-IFN + 5 mM MMI: 40 hours; for inhibition at 10 µM / inhibition at 25 µM / inhibition at 100 µM / inhibition at 1000 µM: Sus scrofa, FRTL-5
Text: The swine PD1 5′-flanking sequence-CAT chimeras (−1100, −203, and −127), as well as two mutants with the CRE site with −107 to −100 bp deleted (−203ΔCRE and −127ΔCRE) were used to create luciferase reporter gene constructs. The inserts were released by restriction enzyme digestion, purified from agarose gel using QIAEX (QIAGEN, Chatsworth, Calif.) and ligated in the NheI-HindIII site of the PGL-2 basic vector (PROMEGA, Madison, Wis.) using a DNA ligation kit from TAKARA biomedicals (TAKARA SHUZO Co). JM109 bacterial competent cells (PROMEGA, Madison, Wis.) were transformed with the ligation reaction and plated in agar plates for 12 h at 37° C. The colonies were picked and screened with minipreps using QIAprep spin plasmid kit (QIAGEN, Chatsworth, Calif.) and restriction enzyme digestion. The plasmids were then purified by CsCl gradient centrifugation.
The PD1-PGL-2 basic constructs and the Class II-PGL-2 basic constructs were stably transfected in the FRTL-5 cells using a Lipofectamine (GIBCO, Life Technologies, Inc.) method. Near confluent cells in 6H medium were cotransfected with 20 μg of plasmid DNA and 2 μg of a pcDNA3neo or a pPUR selection vector (CLONTECH, Palo Alto, Calif.). After 24-48 hours, 400 μg/ml of G418 (GIBCO, Life Technologies, Inc.) or 10 μM of puromycin (SIGMA) were added to the medium. After 3 weeks the antibiotic-resistant colonies were cloned by limiting dilution and screened to determine their interferon sensitivity. At least 5 cell lines of each construct were isolated, each of whose activity was increased by adding 100 U/ml γ interferon to the medium of the cells. The following data (Tables 10-13) were obtained with one clone of each of the class I or class II-luciferase chimera, but were representative of at least three other clones of each.
Luciferase activity was measured using the Luciferase assay system (PROMEGA, Madison, Wis.). Briefly, treated or untreated cells from a 100 mm culture dish were washed with PBS, scraped and collected in microfuge tubes. The pellet was dissolved in 100 μl 1× reporter lysis buffer and incubated at room temperature for 15 minutes. Cells were frozen in dry ice plus ethanol and thawed in water at room temperature. After vortexing for 10 sec, tubes were centrifuged at 12,000×g for 5 min. Twenty μl of the supernatant were mixed with 100 μl of Luciferase assay reagent and immediately placed in a luminometer. Light was measured for a period of 10 sec after a 2 sec delay.
Treatment of cells, maintained either in the presence of TSH or its absence, with 100 U/ml interferon, increased class I and class II promoter activity (Table 10). In this experiment FRTL-5 cells were grown to 80% confluency in 6H medium with TSH then treated with 100 U/ml γ-interferon, 5 mM MMI or both together. Luciferase activity was measured after 40 hours as described. Several points are notable. First, interferon increases both class I and class II promoter activity in the stable transfectants. Second, MMI inhibits both interferon-increased class I and interferon-increased class II promoter activity.

[4] = 100 μM, 100 U/ml γ-interferon, 6H medium (TSH)
[5] = 1 mM, 100 U/ml γ-interferon, 6H medium (TSH)
[6] = 5 mM, 100 U/ml γ-interferon, 6H medium (TSH)
[7] = 1 mM, 100 U/ml γ-interferon, 6H medium (TSH), read-out: % inhibition of class I RNA expression (γ-interferon-treated)
[8] = 1 mM, basal, 5H medium, read-out: % inhibition of class I RNA expression (basal)
[9] = 5 mM, 100 U/ml γ-interferon, 6H medium (TSH), read-out: % inhibition of class I RNA expression (γ-interferon-treated)
[10] = 10 μM, 100 U/ml γ-interferon, read-out: % inhibition of IFN-increased p(−203)LUC class I promoter activity
[11] = 25 μM, read-out: % inhibition of basal p(−203)LUC class I promoter activity
[12] = 100 μM, read-out: % inhibition of basal p(−203)LUC class I promoter activity
[13] = 100 μM, 100 U/ml γ-interferon, read-out: % inhibition of IFN-increased p(−203)LUC class I promoter activity
[14] = 1.0 mM, read-out: % inhibition of basal p(−203)LUC class I promoter activity
[15] = 1.0 mM, 100 U/ml γ-interferon, read-out: % inhibition of IFN-increased p(−203)LUC class I promoter activity

Cn1ccn(C)c1=S [Compound 8, N-Methylmethimazole]
% inhibition of class I RNA expression (γ-interferon-treated) (MHC class I RNA; [4]): 9 ± 7%
% inhibition of class I RNA expression (basal) (MHC class I RNA; 100 μM, basal, 5H medium): 14 ± 12%
% inhibition of class I RNA expression (γ-interferon-treated) (MHC class I RNA; [5]): 49 ± 13%
% inhibition of class I RNA expression (basal) (MHC class I RNA; 1 mM, basal, 5H medium): 60 ± 6%
% inhibition of class I RNA expression (γ-interferon-treated) (MHC class I RNA; [6]): 73 ± 12%
Y box protein (TSEP-1) RNA level, compound +γIFN ([1]; 100 μM compound + γIFN): 77 ± 6%
Y box protein (TSEP-1) RNA level, compound ALONE ([1]; 100 μM compound alone): 119 ± 13%
Y box protein (TSEP-1) RNA level, compound +γIFN ([1]; 1 mM compound + γIFN): 148 ± 12%
Y box protein (TSEP-1) RNA level, compound ALONE ([1]; 1 mM compound alone): 115 ± 5%
Concentration to inhibit IFN-increased antigen expression, Class I [2]: 356 ± 70 µM
% inhibition of IFN-increased p(−203)LUC class I promoter activity ([3]; 10 μM, 100 U/ml γ-interferon): 0%
% inhibition of basal p(−203)LUC class I promoter activity ([3]; 25 μM): 9 ± 6%
% inhibition of basal p(−203)LUC class I promoter activity ([3]; 100 μM): 44 ± 10%
% inhibition of IFN-increased p(−203)LUC class I promoter activity ([3]; 100 μM, 100 U/ml γ-interferon): 42 ± 14%
% inhibition of basal p(−203)LUC class I promoter activity ([3]; 1.0 mM): 51 ± 7%
% inhibition of IFN-increased p(−203)LUC class I promoter activity ([3]; 1.0 mM, 100 U/ml γ-interferon): 77 ± 10%

CSc1nccn1C [Compound 7, S-Methylmethimazole]
inhibition at 100 µM (MHC class I RNA; 100 μM, 100 U/ml γ-interferon, 6H medium (TSH), read-out: % inhibition of class I RNA expression (γ-interferon-treated)): 14 ± 11%
inhibition at 100 µM (MHC class I RNA; 100 μM, basal, 5H medium, read-out: % inhibition of class I RNA expression (basal)): 10 ± 8%
inhibition at 1000 µM (MHC class I RNA; [7]): 40 ± 15%
inhibition at 1000 µM (MHC class I RNA; [8]): 46 ± 9%
inhibition at 5000 µM (MHC class I RNA; [9]): 69 ± 6%
Y box protein (TSEP-1) RNA level, compound +γIFN ([1]; 100 μM compound + γIFN): 83 ± 10%
Y box protein (TSEP-1) RNA level, compound ALONE ([1]; 100 μM compound alone): 111 ± 16%
Y box protein (TSEP-1) RNA level, compound +γIFN ([1]; 1 mM compound + γIFN): 133 ± 15%
Y box protein (TSEP-1) RNA level, compound ALONE ([1]; 1 mM compound alone): 108 ± 4%
Concentration to inhibit IFN-increased antigen expression, Class I [2]: 424 ± 31 µM
inhibition at 10 µM [3, 10]: 0%
inhibition at 25 µM [3, 11]: 0%
inhibition at 100 µM [3, 12]: 10 ± 6%
inhibition at 100 µM [3, 13]: 24 ± 6%
inhibition at 1000 µM [3, 14]: 44 ± 4%
inhibition at 1000 µM [3, 15]: 62 ± 9%

Cn1ccnc1S [Compound 1, 1-Methylimidazole-2-thiol]
% inhibition of class I RNA expression (γ-interferon-treated) (MHC class I RNA; [4]): None
% inhibition of class I RNA expression (basal) (MHC class I RNA; 100 μM, basal, 5H medium): None
inhibition at 1000 µM (MHC class I RNA; [7]): 29 ± 7%
inhibition at 1000 µM (MHC class I RNA; [8]): 25 ± 10%
inhibition at 5000 µM (MHC class I RNA; [9]): 52 ± 15%
inhibition at 5000 µM (MHC class I RNA; 5 mM, basal, 5H medium, read-out: % inhibition of class I RNA expression (basal)): 42 ± 8%
Y box protein (TSEP-1) RNA level, compound +γIFN ([1]; 100 μM compound + γIFN): 42 ± 7%
Y box protein (TSEP-1) RNA level, compound ALONE ([1]; 100 μM compound alone): 105 ± 8%
Y box protein (TSEP-1) RNA level, compound +γIFN ([1]; 1 mM compound + γIFN): 87 ± 7%
Y box protein (TSEP-1) RNA level, compound ALONE ([1]; 1 mM compound alone): 104 ± 12%
Y box protein (TSEP-1) RNA level, compound +γIFN ([1]; 5 mM compound + γIFN): 149 ± 12%
Y box protein (TSEP-1) RNA level, compound ALONE ([1]; 5 mM compound alone): 115 ± 9%
Concentration to inhibit IFN-increased antigen expression, Class I [2]: 5000 µM
effect on basal p(−203) class I luciferase activity ([3]; 1 or 5 mM, stable transfectants): no significant effect
inhibition at 10 µM [3, 10]: 0%
inhibition at 25 µM [3, 11]: 0%
inhibition at 100 µM [3, 12]: 0%
inhibition at 100 µM [3, 13]: 0%
inhibition at 1000 µM [3, 14]: 0%
inhibition at 1000 µM [3, 15]: 45 ± 10%
Luciferase activity + 5 mM MMI ([3]; Vector-LUC Control): 100 ± 6 % Control
Luciferase activity +γ-IFN + 5 mM MMI ([3]; Vector-LUC Control): 105 ± 5 % Control
Luciferase activity + 5 mM MMI ([3]; p(−127) class I-LUC): 135 ± 17 % Control
Luciferase activity +γ-IFN + 5 mM MMI ([3]; p(−127ΔCRE) class I-LUC): 101 ± 4 % Control
Luciferase activity + 5 mM MMI ([3]; p(−203) class I-LUC): 105 ± 38 % Control
Luciferase activity +γ-IFN + 5 mM MMI ([3]; p(−203ΔCRE) class I-LUC): 106 ± 6 % Control

Sc1ncc[nH]1 [Compound 3, 2-Mercaptoimidazole]
% inhibition of class I RNA expression (γ-interferon-treated) (MHC class I RNA; [5]): None
% inhibition of class I RNA expression (basal) (MHC class I RNA; 1 mM, basal, 5H medium): None
% inhibition of class I RNA expression (γ-interferon-treated) (MHC class I RNA; [6]): None
% inhibition of class I RNA expression (basal) (MHC class I RNA; 5 mM, basal, 5H medium): None
Y box protein (TSEP-1) RNA level, compound +γIFN ([1]; 100 μM compound + γIFN): 42 ± 11%
Y box protein (TSEP-1) RNA level, compound ALONE ([1]; 100 μM compound alone): 102 ± 7%
Y box protein (TSEP-1) RNA level, compound +γIFN ([1]; 1 mM compound + γIFN): 42 ± 5%
Y box protein (TSEP-1) RNA level, compound ALONE ([1]; 1 mM compound alone): 94 ± 6%
Y box protein (TSEP-1) RNA level, compound +γIFN ([1]; 5 mM compound + γIFN): 47 ± 4%
Y box protein (TSEP-1) RNA level, compound ALONE ([1]; 5 mM compound alone): 100 ± 8%
Concentration to inhibit IFN-increased antigen expression, Class I [2]: No Inhibition
inhibition at 25 µM [3, 11]: 0%
inhibition at 100 µM [3, 12]: 0%
inhibition at 1000 µM [3, 14]: 0%
